Here are results for two compounds from patent US20240192233A1, “DRUG DISCOVERY ASSAY TO SCREEN FOR COMPOUNDS” (FUNDACIÓ INSTITUT DE RECERCA BIOMÈDICA (IRB BARCELONA), priority 2021, published 2024).

Common to all, as to type: biochemical
In experiment [1] the target is T1, AR-NTD (Homo sapiens, UniProt P10275).
T1 construct: a domain of the androgen receptor localised at its N-terminus, amino acids 1-558
T1 sequence (P10275 1-558): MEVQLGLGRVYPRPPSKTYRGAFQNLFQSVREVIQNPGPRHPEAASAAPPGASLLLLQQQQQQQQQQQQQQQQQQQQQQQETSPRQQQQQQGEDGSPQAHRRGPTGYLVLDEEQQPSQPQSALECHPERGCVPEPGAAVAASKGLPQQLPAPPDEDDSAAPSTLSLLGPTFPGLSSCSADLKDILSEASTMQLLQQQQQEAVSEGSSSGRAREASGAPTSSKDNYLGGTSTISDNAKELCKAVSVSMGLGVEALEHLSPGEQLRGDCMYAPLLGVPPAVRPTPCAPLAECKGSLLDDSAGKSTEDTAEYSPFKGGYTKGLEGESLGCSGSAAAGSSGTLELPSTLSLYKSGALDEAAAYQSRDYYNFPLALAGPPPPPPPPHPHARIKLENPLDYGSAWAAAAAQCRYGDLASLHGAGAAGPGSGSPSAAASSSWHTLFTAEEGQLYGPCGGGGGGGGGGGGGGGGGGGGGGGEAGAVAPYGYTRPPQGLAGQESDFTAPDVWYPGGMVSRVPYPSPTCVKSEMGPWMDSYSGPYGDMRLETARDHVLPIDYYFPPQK
Briefly: Temperature-dependent turbidity shift assay (TSA), critical temperature Tc. Conditions: 500 mM NaCl. Here is the method:
FIG. 6. a) Apparent absorbance (at λ=350 nm) measurement at increasing temperatures of 30 μM ARNTD in 20 mM Hepes 7.4, 500 mM NaCl, 2 mM TCEP buffer in the absence (grey) and presence of 5 eq of EPI-001 (red) or BADGE (green). Dashed lines indicate condensation onset and calculated Tc values are depicted in the insert. b) Tc obtained using the TSA assay of AR-NTD at different concentrations in 20 mM Hepes 7.4, 500 mM NaCl, 2 mM TCEP buffer in the absence (grey) and presence of 5 eq of EPI-001 (red) or BADGE (green). Mean values of 3 independent measurements and the standard deviation are plotted.
To quantify the effects of EPI-001 on the AR-NTD phase separation, we implemented a temperature-dependent turbidity shift assay (TSA). In this assay we measure the sample turbidity as a reporter of condensation and determine the temperature at which a given sample demixes, the Critical Temperature. When droplets are formed, they scatter light and cause an abrupt increase in turbidity. Therefore, values above 0 absorbance units (AU) in the TSA assay indicate condensation. We measure turbidity as the apparent absorbance at a wavelength in which the absorption of the other components in the sample is minimal, in our case 350 nm. Addition of 5 equivalents (eq) of EPI-001 to a 30 μM AR-NTD and 500 mM NaCl sample lowered the Tc of the AR-NTD by 10° C. (FIG. 5a). […]

Experiment [2] deals with T1, AR-NTD. Briefly: Screening with the condensation (TSA) assay, percentage of shift versus reference shift. The settings on record: screening concentration 100 μM; negative reference DMSO; mean of 3 measurements. The procedure: FIG. 7. […] First two bars show data points corresponding to the controls that are used to calculate the activity: Negative reference (DMSO), Positive reference (EPI-001 at 200 μM). […] Mean values of 3 measurements and the standard deviation are plotted.
In this sense, in FIG. 7 the first two bars show data points corresponding to the controls that are used to calculate the activity: • Negative reference—DMSO • Positive reference—EPI-001 at 200 μM
Briefly, in order to quantitatively rank the tested compounds with regards to their efficacy to enhance the AR-NTD condensation in vitro and compare it to that of EPI-001, we measured the cloud point temperature (Tc) of each of the samples at constant protein concentration (100 μM). Then, we calculated the percentage of shift caused by the compound in comparison to the reference shift, the one caused by 200 μM EPI-001. Next, we plotted the normalised shift versus the compound concentration.

The target of experiment [3] is T1, AR-NTD. As to the kind of experiment: Screening with the condensation assay, amplitude of the absorbance as parameter. The settings on record: screening concentration 100 μM; references DMSO and EPI-001 at 200 μM; mean of 3 measurements. The procedure: FIG. 9. Results of screening for molecules using the condensation assay with amplitude of the absorbance as a parameter determining the activity of tested molecules. First two bars show data points corresponding to the controls that are used to calculate the activity: negative reference (DMSO), positive reference (EPI-001 at 200 μM). The rest of the bars corresponds to the activity of three screened molecules at a screening concentration 100 μM. […] Mean values of 3 measurements and the standard deviation are plotted.
Please note that, with reference to this aspect of the invention, the inventors have shown that this parameter could also be used to select hits (see FIG. 9).

SMILES strings stand for the structures.

Consider `CC(C)(c1ccc(OCC2CO2)cc1)c1ccc(OCC2CO2)cc1` (stereo not drawn) [BADGE], for which the “enhancement of AR-NTD condensation at all protein concentrations tested (left arm of phase diagram)” value at AR-NTD [1] (5 eq of compound, various AR-NTD concentrations) was “not”. For the same compound, the “lowering of the Tc of the AR-NTD” value on AR-NTD [1] (5 equivalents of compound, 30 μM AR-NTD, absorbance at 350 nm) came out at 3 °C. Further, the “hit classification by activity (percentage of Tc shift relative to 200 μM EPI-001), cut-off 25%” value at AR-NTD [2] is given as “non-hit”. Further, the “hit classification by activity based on amplitude of the absorbance, cut-off 25%” value at AR-NTD [3] was “inactive”.

Turning to `CC(C)(c1ccc(OC[C@H](O)CNS(C)(=O)=O)cc1)c1cc(Cl)c(OC[C@H](O)CCl)c(Cl)c1` [EPI-7170], on AR-NTD [2], the “hit classification by activity (percentage of Tc shift relative to 200 μM EPI-001), cut-off 25%” value was “hits”. At AR-NTD [3], the “hit classification by activity based on amplitude of the absorbance, cut-off 25%” value is “hits”.
